In ChEMBL document CHEMBL1201862, “PubChem BioAssay data set” (2004):
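Cells were grown in 96-well plates and exposed to each compound for 48 hours at five concentrations; endpoints were interpolated linearly between bracketing concentrations, or set to the highest concentration if not reached. At the GI50, growth is halved.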 Activity calls are given as the source filed them. Cut-off read from the data, not from the text of the source: active = GI50 up to about 1.1 µM and inactive = higher.

What was measured:
Experiment in all cases: growth of human tumour cells (NCI), 48 h
HL-60 = system: HL-60
HCC 2998 = system: HCC 2998
SNB-19 = system: SNB-19
HOP-18 = system: HOP-18
OVCAR-5 = system: OVCAR-5
EKVX = system: EKVX
OVCAR-4 = system: OVCAR-4
CAKI-1 = system: CAKI-1
HOP-92 = system: HOP-92
SK-OV-3 = system: SK-OV-3
HT-29 = system: HT-29
HCT-116 = system: HCT-116
UACC-62 = system: UACC-62
NCI-H522 = system: NCI-H522
KM-20L2 = system: KM-20L2
NCI-H226 = system: NCI-H226
LOX IMVI = system: LOX IMVI
Malme-3M = system: Malme-3M
IGROV-1 = system: IGROV-1
UACC-257 = system: UACC-257
MOLT-4 = system: MOLT-4
A549 = system: A549
SW-620 = system: SW-620
NCI-H460 = system: NCI-H460
OVCAR-3 = system: OVCAR-3
CCRF-CEM = system: CCRF-CEM
DMS-273 = system: DMS-273
A498 = system: A498
HOP-62 = system: HOP-62
DLD-1 = system: DLD-1
MCF7 = system: MCF7
SNB-75 = system: SNB-75
K562 = system: K562
SNB-78 = system: SNB-78
SK-MEL-28 = system: SK-MEL-28
SF-539 = system: SF-539
UO-31 = system: UO-31
OVCAR-8 = system: OVCAR-8
SK-MEL-2 = system: SK-MEL-2
SF-295 = system: SF-295
SF-268 = system: SF-268
SK-MEL-5 = system: SK-MEL-5
M19-MEL = system: M19-MEL
RXF 393 = system: RXF 393
KM12 = system: KM12
NCI/ADR-RES = system: NCI/ADR-RES
COLO 205 = system: COLO 205
RPMI-8226 = system: RPMI-8226
U-251 = system: U-251
SN12C = system: SN12C
HCT-15 = system: HCT-15
NCI-H23 = system: NCI-H23
786-0 = system: 786-0
LXFL 529 = system: LXFL 529
M14 = system: M14
DMS-114 = system: DMS-114
TK-10 = system: TK-10
SR = system: SR
ACHN = system: ACHN

Structure (SMILES): COCC1N=C(c2cc(OC)c(OC)c(OC)c2-c2cc3c(cc2[C@@H](C)O)OCO3)O[C@H]1c1ccccc1 (some centres undefined)
- GI50 (HL-60): > 100 µM (inactive)
- GI50 (HCC 2998): > 100 µM (inactive)
- GI50 (SNB-19): 73.1 µM (inactive)
- GI50 (HOP-18): > 86.5 µM (inactive)
- GI50 (OVCAR-5): > 73.8 µM (inactive)
- GI50 (EKVX): 36.8 µM (inactive)
- GI50 (OVCAR-4): 37.6 µM (inactive)
- GI50 (CAKI-1): 99.8 µM (inactive)
- GI50 (HOP-92): 34.4 µM (inactive)
- GI50 (SK-OV-3): 97.5 µM (inactive)
- GI50 (HT-29): 75.9 µM (inactive)
- GI50 (HCT-116): > 100 µM (inactive)
- GI50 (UACC-62): 33.6 µM (inactive)
- GI50 (NCI-H522): 36.2 µM (inactive)
- GI50 (KM-20L2): 98.2 µM (inactive)
- GI50 (NCI-H226): > 77.1 µM (inactive)
- GI50 (LOX IMVI): > 100 µM (inactive)
- GI50 (Malme-3M): > 80.5 µM (inactive)
- GI50 (IGROV-1): > 68.9 µM (inactive)
- GI50 (UACC-257): > 100 µM (inactive)
- GI50 (MOLT-4): > 100 µM (inactive)
- GI50 (A549): > 57.3 µM (inactive)
- GI50 (SW-620): > 100 µM (inactive)
- GI50 (NCI-H460): > 71.8 µM (inactive)
- GI50 (OVCAR-3): 50 µM (inactive)
- GI50 (CCRF-CEM): > 100 µM (inactive)
- GI50 (DMS-273): > 71.9 µM (inactive)
- GI50 (A498): > 94.4 µM (inactive)
- GI50 (HOP-62): 86.3 µM (inactive)
- GI50 (DLD-1): > 89.7 µM (inactive)
- GI50 (MCF7): > 61.1 µM (inactive)
- GI50 (SNB-75): 25.9 µM (inactive)
- GI50 (K562): > 100 µM (inactive)
- GI50 (SNB-78): > 45.2 µM (inactive)
- GI50 (SK-MEL-28): > 68.4 µM (inactive)
- GI50 (SF-539): 77.4 µM (inactive)
- GI50 (UO-31): > 100 µM (inactive)
- GI50 (OVCAR-8): > 74.5 µM (inactive)
- GI50 (SK-MEL-2): > 53.3 µM (inactive)
- GI50 (SF-295): 57.7 µM (inactive)
- GI50 (SF-268): > 66.2 µM (inactive)
- GI50 (SK-MEL-5): > 76.7 µM (inactive)
- GI50 (M19-MEL): > 90.8 µM (inactive)
- GI50 (RXF 393): 33.7 µM (inactive)
- GI50 (KM12): > 100 µM (inactive)
- GI50 (NCI/ADR-RES): 40.2 µM (inactive)
- GI50 (COLO 205): > 100 µM (inactive)
- GI50 (RPMI-8226): 97.5 µM (inactive)
- GI50 (U-251): 53.2 µM (inactive)
- GI50 (SN12C): 52.1 µM (inactive)
- GI50 (HCT-15): > 100 µM
- GI50 (NCI-H23): 51.6 µM (inactive)

Structure (SMILES): CC([C@H]1CCC2C3CCC4CC5(CC[C@]4(C)C3CC[C@@]21C)c1ccccc1C(=O)N5C)N(C)C (some centres undefined)
- GI50 (HL-60): 17.5 µM (inactive)
- GI50 (HCC 2998): > 100 µM (inactive)
- GI50 (SNB-19): 42.3 µM (inactive)
- GI50 (HOP-18): > 100 µM (inactive)
- GI50 (OVCAR-5): 29 µM (inactive)
- GI50 (OVCAR-4): 68.1 µM (inactive)
- GI50 (CAKI-1): > 100 µM (inactive)
- GI50 (HOP-92): 50.5 µM (inactive)
- GI50 (SK-OV-3): > 100 µM (inactive)
- GI50 (HT-29): 6.18 µM (inactive)
- GI50 (786-0): 13.9 µM (inactive)
- GI50 (LXFL 529): 32.2 µM (inactive)
- GI50 (HCT-116): 13.3 µM (inactive)
- GI50 (UACC-62): 24.5 µM (inactive)
- GI50 (NCI-H522): 46.9 µM (inactive)
- GI50 (LOX IMVI): 1.65 µM (inactive)
- GI50 (Malme-3M): 21.2 µM (inactive)
- GI50 (IGROV-1): 40.6 µM (inactive)
- GI50 (MOLT-4): 19.2 µM (inactive)
- GI50 (A549): 78.5 µM (inactive)
- GI50 (M14): 13.9 µM (inactive)
- GI50 (SW-620): 40.6 µM (inactive)
- GI50 (NCI-H460): 21.4 µM (inactive)
- GI50 (DMS-114): 32.4 µM (inactive)
- GI50 (OVCAR-3): > 100 µM (inactive)
- GI50 (CCRF-CEM): 44.4 µM (inactive)
- GI50 (DMS-273): 12.9 µM (inactive)
- GI50 (A498): 23.8 µM (inactive)
- GI50 (HOP-62): 31.3 µM (inactive)
- GI50 (DLD-1): 36.5 µM (inactive)
- GI50 (SNB-75): 3.45 µM (inactive)
- GI50 (K562): 15.7 µM (inactive)
- GI50 (SK-MEL-28): 17.6 µM (inactive)
- GI50 (SF-539): 17.9 µM (inactive)
- GI50 (UO-31): 13 µM (inactive)
- GI50 (OVCAR-8): 39.8 µM (inactive)
- GI50 (SK-MEL-2): 19.7 µM (inactive)
- GI50 (SF-295): 18.7 µM (inactive)
- GI50 (SF-268): > 100 µM (inactive)
- GI50 (SK-MEL-5): 17.9 µM (inactive)
- GI50 (M19-MEL): 17 µM (inactive)
- GI50 (RXF 393): 33 µM (inactive)
- GI50 (KM12): 74.8 µM (inactive)
- GI50 (TK-10): 26.1 µM (inactive)
- GI50 (SR): 18.1 µM (inactive)
- GI50 (COLO 205): 33 µM (inactive)
- GI50 (RPMI-8226): 20.7 µM (inactive)
- GI50 (U-251): 40.4 µM (inactive)
- GI50 (ACHN): 44.9 µM (inactive)
- GI50 (SN12C): 31.6 µM (inactive)
- GI50 (HCT-15): 27.7 µM
- GI50 (NCI-H23): > 100 µM (inactive)
